These results are taken from patent US20090069565A1, “NEW INDOLE DERIVATIVES AS FACTOR XA INHIBITORS” (priority 2001, published 2009).

Like-named read-outs stand apart in the source and are kept apart here.

The experiment concerns the target human factor Xa (Homo sapiens, UniProt P00742). Description: Factor Xa assay (chromogenic, substrate S-2765).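 Also: purified enzyme preincubated with inhibitor for 10 min before substrate addition, final reaction volume 100 µl.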 In kind it is biochemical.
The mark [1] stands for this setting: inhibition constant for factor Xa, purified enzyme 0.5 nM, substrate S-2765 140 μM, 25° C., pH 7.8, Ki=IC50/{1+(substrate concentration/Km)}, read-out: Ki(FXa).

human factor Xa, sequence (P00742 235-488 limits assumed): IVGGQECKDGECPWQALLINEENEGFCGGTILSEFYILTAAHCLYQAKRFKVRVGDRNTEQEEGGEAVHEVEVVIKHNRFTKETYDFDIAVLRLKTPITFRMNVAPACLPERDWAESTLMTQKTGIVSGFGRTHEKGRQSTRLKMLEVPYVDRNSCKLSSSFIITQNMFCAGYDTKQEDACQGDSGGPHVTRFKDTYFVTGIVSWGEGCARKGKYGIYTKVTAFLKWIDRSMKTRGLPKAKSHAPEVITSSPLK
human factor Xa, sequence (P00742 41-179 partner limits assumed): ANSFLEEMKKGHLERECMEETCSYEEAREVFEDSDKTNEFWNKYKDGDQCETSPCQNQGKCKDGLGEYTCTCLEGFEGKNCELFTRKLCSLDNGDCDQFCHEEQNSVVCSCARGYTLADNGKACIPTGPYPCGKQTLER

One may read the Ki as a measure of affinity in units of concentration, obtained from inhibition or displacement. For the molecule `CN1CCC(NC(=O)c2cc3ccccc3n2Cc2cc(-c3ccc(Cl)s3)on2)CC1` [Example 187, 1-[5-(5-Chloro-thiophen-2-yl)-isoxazol-3-ylmethyl]-1H-indole-2-carboxylic acid (1-methyl-piperidin-4-yl)-amide], the Ki under setting [1] was found to be 40 nM.

As for `O=C(NC1CCN(CC(F)(F)F)CC1)c1cc2ccccc2n1Cc1cc(-c2ccc(Cl)s2)on1` [Example 188, 1-[5-(5-Chloro-thiophen-2-yl)-isoxazol-3-ylmethyl]-1H-indole-2-carboxylic acid [1-(2,2,2-trifluoro-ethyl)-piperidin-4-yl]-amide], the Ki (read-out: Ki(FXa)) stood at 1030 nM.

Take `O=CN1CCC(NC(=O)c2cc3ccccc3n2Cc2cc(-c3ccc(Cl)s3)on2)CC1` [Example 189, 1-[5-(5-Chloro-thiophen-2-yl)-isoxazol-3-ylmethyl]-1H-indole-2-carboxylic acid (1-formyl-piperidin-4-yl)-amide]: the Ki (read-out: Ki(FXa)) was found to be 2020 nM.

`NC(=O)N1CCC(NC(=O)c2cc3ccccc3n2Cc2cc(-c3ccc(Cl)s3)on2)CC1` [Example 190, 1-[5-(5-Chloro-thiophen-2-yl)-isoxazol-3-ylmethyl]-1H-indole-2-carboxylic acid (1-carbamoyl-piperidin-4-yl)-amide]: the Ki under setting [1] came to 1080 nM.

For the molecule `CS(=O)(=O)N1CCC(NC(=O)c2cc3ccccc3n2Cc2cc(-c3ccc(Cl)s3)on2)CC1` [Example 191, 1-[5-(5-Chloro-thiophen-2-yl)-isoxazol-3-ylmethyl]-1H-indole-2-carboxylic acid (1-methanesulfonyl-piperidin-4-yl)-amide], the inhibitory constant (Ki) (read-out: Ki(FXa)) is 136 nM.

With `CC(=O)N1CCC(NC(=O)c2cc3ccccc3n2Cc2cc(-c3ccc(Cl)s3)on2)CC1` [Example 192, 1-[5-(5-Chloro-thiophen-2-yl)-isoxazol-3-ylmethyl]-1H-indole-2-carboxylic acid (1-acetyl-piperidin-4-yl)-amide], the Ki under setting [1] came out at 763 nM.

Take `O=C(NC1CCN(c2ccnc(Cl)n2)CC1)c1cc2ccccc2n1Cc1cc(-c2ccc(Cl)s2)on1` [Example 193, 1-[5-(5-Chloro-thiophen-2-yl)-isoxazol-3-ylmethyl]-1H-indole-2-carboxylic acid [1-(2-chloro-pyrimidin-4-yl)-piperidin-4-yl]-amide]: the Ki (read-out: Ki(FXa)) was found to be 199 nM.

Regarding `O=C(NC1CCN(c2ccncn2)CC1)c1cc2ccccc2n1Cc1cc(-c2ccc(Cl)s2)on1` [Example 194, 1-[5-(5-Chloro-thiophen-2-yl)-isoxazol-3-ylmethyl]-1H-indole-2-carboxylic acid (1-pyrimidin-4-yl-piperidin-4-yl)-amide], the Ki under setting [1] stood at 95 nM.

For `CC(C)CN1CCC(NC(=O)c2cc3ccccc3n2Cc2cc(-c3ccc(Cl)s3)on2)CC1` [Example 199, 1-[5-(5-Chloro-thiophen-2-yl)-isoxazol-3-ylmethyl]-1H-indole-2-carboxylic acid (1-isobutyl-piperidin-4-yl)-amide], the Ki under setting [1] stood at 142 nM.

On to `CCCN1CCC(NC(=O)c2cc3ccccc3n2Cc2cc(-c3ccc(Cl)s3)on2)CC1` [Example 200], for which the Ki under setting [1] was found to be 64 nM.

`COC(=O)N1CCC(NC(=O)c2cc3ccccc3n2Cc2cc(-c3ccc(Cl)s3)on2)CC1` [Example 201, 4-({1-[5-(5-Chloro-thiophen-2-yl)-isoxazol-3-ylmethyl]-1H-indole-2-carbonyl}-amino)-piperidine-1-carboxylic acid methyl ester]: the inhibition constant (Ki) (read-out: Ki(FXa)) stood at 1780 nM.

As to `CC(C)N1CCN(NC(=O)c2cc3ccccc3n2Cc2cc(-c3ccc(Cl)s3)on2)CC1` [Example 202, 1-[5-(5-Chloro-thiophen-2-yl)-isoxazol-3-ylmethyl]-1H-indole-2-carboxylic acid (4-isopropyl-piperazin-1-yl)-amide], the inhibition constant Ki (read-out: Ki(FXa)) was determined as 20 nM.

Regarding `CCN1CCN(NC(=O)c2cc3ccccc3n2Cc2cc(-c3ccc(Cl)s3)on2)CC1` [Example 203, 1-[5-(5-Chloro-thiophen-2-yl)-isoxazol-3-ylmethyl]-1H-indole-2-carboxylic acid (4-ethyl-piperazin-1-yl)-amide], where the note is “read-out: Ki(FXa)”, the Ki was found to be 28 nM.

Molecule `O=C(c1cc2ccccc2n1Cc1cc(-c2ccc(Cl)s2)on1)N(c1ccncc1)C1CCN(c2ccncc2)CC1` [Example 204, 1-[5-(5-Chloro-thiophen-2-yl)-isoxazol-3-ylmethyl]-1H-indole-2-carboxylic acid pyridin-4-yl-(3,4,5,6-tetrahydro-2H-[1,4′]bipyridinyl-4-yl)-amide] had a Ki of 74 nM.

Regarding `O=C(c1cc2cc([N+](=O)[O-])ccc2n1Cc1cc(-c2ccc(Cl)s2)on1)N(c1ccncc1)C1CCN(c2ccncc2)CC1` [Example 205, 1-[5-(5-Chloro-thiophen-2-yl)-isoxazol-3-ylmethyl]-5-nitro-1H-indole-2-carboxylic acid pyridin-4-yl-(3,4,5,6-tetrahydro-2H-[1,4′]bipyridinyl-4-yl)-amide], affinity was put at a Ki of 34 nM.

With `N#Cc1c(C(=O)NC2CCN(c3ccncc3)CC2)n(Cc2cc(-c3ccc(Cl)s3)on2)c2ccccc12` [Example 206, 1-[5-(5-Chloro-thiophen-2-yl)-isoxazol-3-ylmethyl]-3-cyano-1H-indole-2-carboxylic acid (3,4,5,6-tetrahydro-2H-[1,4′]bipyridinyl-4-yl)-amide], under “read-out: Ki(FXa)”, the Ki is 12 nM.

As for `COc1ccc(C#N)c2c1c(C#N)c(C(=O)NC1CCN(C(C)C)CC1)n2Cc1cc(-c2ccc(Cl)s2)on1` [Example 208, 1-[5-(5-Chloro-thiophen-2-yl)-isoxazol-3-ylmethyl]-3,7-dicyano-4-methoxy-1H-indole-2-carboxylic acid (1-isopropyl-piperidin-4-yl)-amide], the Ki (read-out: Ki(FXa)) was found to be 1 nM.

For the molecule `CC(C)N1CCC(NC(=O)c2cc3ccccc3n2Cc2cc3ccc(Cl)cc3c(Cl)n2)CC1` [Example 210, 1-(1,7-Dichloro-isoquinolin-3-ylmethyl)-1H-indole-2-carboxylic acid (1-isopropyl-piperidin-4-yl)-amide], for the setting “read-out: Ki(FXa)”, the inhibition constant (Ki) turned out to be 79 nM.

As to `CC(C)N1CCC(NC(=O)c2cc3ccccc3n2Cc2cc(-c3ccc(Cl)cc3)no2)CC1` [Example 211, 1-[3-(4-Chloro-phenyl)-isoxazol-5-ylmethyl]-1H-indole-2-carboxylic acid (1-isopropyl-piperidin-4-yl)-amide], the Ki under setting [1] stood at 400 nM.

Take `CC(C)N1CCC(NC(=O)c2cc3ccccc3n2Cc2cc(-c3ccc(Cl)cc3)on2)CC1` [Example 212, 1-[5-(4-Chloro-phenyl)-isoxazol-3-ylmethyl]-1H-indole-2-carboxylic acid (1-isopropyl-piperidin-4-yl)-amide]: the Ki under setting [1] turned out to be 810 nM.

`CC(C)N1CCC(NC(=O)c2cc3ccccc3n2Cc2nc(-c3ccc(Cl)cc3)no2)CC1` [Example 213, 1-[3-(4-Chloro-phenyl)-[1,2,4]oxadiazol-5-ylmethyl]-1H-indole-2-carboxylic acid (1-isopropyl-piperidin-4-yl)-amide]: under setting [1], the Ki was found to be 2230 nM.

In the case of `CC(C)N1CCC(NC(=O)c2cc3cc(S(C)(=O)=O)ccc3n2CC(=O)Nc2ccc(Cl)cn2)CC1` [Example 214, 1-[(5-Chloro-pyridin-2-ylcarbamoyl)-methyl]-5-methanesulfonyl-1H-indole-2-carboxylic acid (1-isopropyl-piperidin-4-yl)-amide], where the note is “read-out: Ki(FXa)”, the inhibitory constant (Ki) is 52 nM.

Consider `CC(C)N1CCC(NC(=O)c2cc3cc(S(C)(=O)=O)ccc3n2CC(=O)Nc2ccc(Cl)cc2)CC1` [Example 215, 1-[(4-Chloro-phenylcarbamoyl)-methyl]-5-methanesulfonyl-1H-indole-2-carboxylic acid (1-isopropyl-piperidin-4-yl)-amide], for which, under “read-out: Ki(FXa)”, the Ki was determined as 23 nM.

`CC(C)N1CCC(NC(=O)c2cc3cc(Cl)ccc3n2CC(=O)Nc2ccc(Cl)cn2)CC1` [Example 216, 5-Chloro-1-[(5-chloro-pyridin-2-ylcarbamoyl)-methyl]-1H-indole-2-carboxylic acid (1-isopropyl-piperidin-4-yl)-amide]: where the note is “read-out: Ki(FXa)”, the Ki was determined as 9 nM.

Regarding `CC(C)N1CCC(NC(=O)c2cc3cc(F)ccc3n2CC(=O)Nc2ccc(Cl)cn2)CC1` [Example 217, 1-[(5-Chloro-pyridin-2-ylcarbamoyl)-methyl]-5-fluoro-1H-indole-2-carboxylic acid (1-isopropyl-piperidin-4-yl)-amide], where the note is “read-out: Ki(FXa)”, the Ki was found to be 700 nM.

Consider `CC(C)N1CCC(NC(=O)c2cc3cc(F)cc(F)c3n2CC(=O)Nc2ccc(Cl)cn2)CC1` [Example 218, 1-[(5-Chloro-pyridin-2-ylcarbamoyl)-methyl]-5,7-difluoro-1H-indole-2-carboxylic acid (1-isopropyl-piperidin-4-yl)-amide], for which the inhibitory constant (Ki) (read-out: Ki(FXa)) stood at 1 nM.

For `CCN1CC[C@H](NC(=O)c2cc3ccccc3n2Cc2cc(-c3ccc(Cl)s3)on2)C1` [Example 219], the Ki (read-out: Ki(FXa)) was 173 nM.

For `CCN1CC[C@@H](NC(=O)c2cc3ccccc3n2Cc2cc(-c3ccc(Cl)s3)on2)C1` [Example 220, R-1-[5-(5-Chloro-thiophen-2-yl)-isoxazol-3-ylmethyl]-1H-indole-2-carboxylic acid (1-ethyl-pyrrolidin-3-yl)-amide], for the setting “read-out: Ki(FXa)”, the Ki came out at 102 nM.

With `CC(C)N1CC[C@@H](NC(=O)c2cc3ccccc3n2Cc2cc(-c3ccc(Cl)s3)on2)C1` [Example 221, R-1-[5-(5-Chloro-thiophen-2-yl)-isoxazol-3-ylmethyl]-1H-indole-2-carboxylic acid (1-isopropyl-pyrrolidin-3-yl)-amide], the Ki under setting [1] came to 48 nM.

For the molecule `CC(C)N1CC[C@H](NC(=O)c2cc3ccccc3n2Cc2cc(-c3ccc(Cl)s3)on2)C1` [Example 222, S-1-[5-(5-Chloro-thiophen-2-yl)-isoxazol-3-ylmethyl]-1H-indole-2-carboxylic (1-isopropyl-pyrrolidin-3-yl)-amide], the inhibition constant (Ki) under setting [1] is 103 nM.

On to `CCOC(=O)CN(C(=O)c1cc2c(C(F)(F)F)cccc2n1Cc1cc(-c2ccc(Cl)s2)on1)C1CCN(C(C)C)CC1` [Example 223, [{1-[5-(5-Chloro-thiophen-2-yl)-isoxazol-3-ylmethyl]-4-trifluoromethyl-1H-indole-2-carbonyl}-(1-isopropyl-piperidin-4-yl)-amino]-acetic acid ethyl ester], for which the Ki (read-out: Ki(FXa)) is 110 nM.
